The source of these data is patent US7972780B2, “ITPase gene polymorphisms associated with adverse drug reactions to azathioprine therapy” (Guy's and St. Thomas' NHS Foundation Trust, priority 2004, dated 2011).

Like-named read-outs stand apart in the source and are kept apart here.

Data set [1] relates to Caucasian patients with IBD. Conditions: for Odds ratio, All side effects: ADR n = 62 vs controls n = 68; for Odds ratio, Hepatotoxicity / Odds ratio, Other: n = 4 vs controls; for Odds ratio, Neutropenia: n = 11 vs controls; for Odds ratio, Flu-like symptoms: n = 16 vs controls.
For a further data set, the system named is patients. Conditions: Dubinsky et al. 2001; cited from earlier work.
Setting [2] is: ITPA 94C>A, TPMT heterozygous genotypes excluded.

On to `Cn1cnc([N+](=O)[O-])c1Sc1ncnc2nc[nH]c12` [azathioprine], for which the “Odds ratio, Rash” value in the data set with IBD patients (ITPA 94C>A, 6 patients) was 10.833; in data set [1] (ITPA 94C > A, n = 6 vs controls), 10.3; in data set [1] (setting [2]), 15.5; in data set [1] (ITPA IVS2 + 21A > C, n = 6 vs controls), 0.9; in data set [1] (TPMT *3A + C, n = 6 vs controls) it was 4.4. The “Odds ratio, flu-like symptoms” value with IBD patients (ITPA 94C>A, 11 patients) was 6.190. The “Odds ratio, adverse drug reactions to AZA therapy” value in the data set with IBD patients (ITPA 94C>A, 64 ADR patients vs 71 without side-effects, dominant model) worked out at 4.239. The “Odds ratio, Nausea and vomiting” value in the data set on IBD patients (variant TPMT genotypes, subset of 14 patients) was found to be 5.079; in data set [1] (ITPA 94C > A, n = 13 vs controls) it was 3.1; in data set [1] (setting [2]) it was 6.2; in data set [1] (ITPA IVS2 + 21A > C, n = 13 vs controls), 0.4; in data set [1] (TPMT *3A + C, n = 13 vs controls), 5.5. In addition, the “Odds ratio, All side effects” value in data set [1] (ITPA 94C > A variant genotype) came to 4.2; in data set [1] (ITPA IVS2 + 21A > C variant genotype) it was 0.7; in data set [1] (TPMT *3A + C variant genotype), 1.7. The “Odds ratio, Hepatotoxicity” value in data set [1] (ITPA 94C > A) stood at 10.3; in data set [1] (ITPA IVS2 + 21A > C), 0.5; in data set [1] (TPMT *3A + C), 2.9. Further, the figures for the “Odds ratio, Other” value in data set [1] (ITPA 94C > A) and in data set [1] (ITPA IVS2 + 21A > C) were 3.4 and 4.2, respectively. The “Odds ratio, Pancreatitis” value in data set [1] (ITPA 94C > A, n = 8 vs controls) is given as 6.2; in data set [1] (setting [2]), 7.8; in data set [1] (ITPA IVS2 + 21A > C, n = 8 vs controls), 0.6; in data set [1] (TPMT *3A + C, n = 8 vs controls), 1.3. Also, the “Odds ratio, Neutropenia” value is listed as 1.0 in data set [1] (ITPA 94C > A), 0.4 in data set [1] (ITPA IVS2 + 21A > C) and 0.9 in data set [1] (TPMT *3A + C). Besides, the “Odds ratio, Flu-like symptoms” value was found to be 4.7 in data set [1] (ITPA 94C > A), 1.0 in data set [1] (ITPA IVS2 + 21A > C) and 0.3 in data set [1] (TPMT *3A + C). Also, the “Odds ratio, adverse drug reactions” value in data set [1] (ITPA 94C>A, TPMT heterozygous genotypes excluded from side-effect cohort) was 5.3. For the same compound, in data set [1] (TPMT and ITPA 94C>A genotypes combined), the “Odds ratio, risk of experiencing an adverse drug reaction” value is listed as 3.5. In data set [1] (of the 4 re-challenged patients heterozygous for a variant TPMT allele), the “patients remaining intolerant on re-challenge with reduced dose” value is “two patients remained intolerant”. In data set [1] (of the 62 patients suffering adverse drug reactions), the “patients in whom therapy could be continued at full dose” value turned out to be 5. In addition, in data set [1] (patients with ITPA 94C>A alleles), the “patients who tolerated a reduced dose” value is given as 3 of 6.

As for `Nc1nc2nc[nH]c2c(=S)[nH]1` [thioguanine, 6-thioguanine], in the data set on patients, the “use in patients with 6-MP/AZA-related toxicity” value is recorded as “used successfully”.
